Results as given in patent publication US20060159777A1, “Aqueous acaricidal solution” (SOLVAY (SOCIETE ANONYME), priority 2002, published 2006).
Where two headings read alike, the source gives them in different places.

What was measured:
[1] = system: dermatophagoides pteronyssinus; conditions: approximately 200 acarids deposited
Method: The procedure was carried out as in example 1, except that the acaricidal aqueous solution was not applied by sprinkling, but the pieces of standard cotton wool (150 g/m^2) were immersed in baths of sodium bicarbonate solution.
Three sodium bicarbonate concentrations were used: 10, 30 and 50 g/l.
After drying of the textiles, approximately 200 acarids of all stages were deposited thereon and the acarid mortality was measured as a function of time.
The acarid mortality was noted after 3 and 6 weeks.
Each experimental series was also repeated three times and the means of the mortality results obtained were taken.

[2] = system: dermatophagoides pteronyssinus
Method: Acarids (dermatophagoides pteronyssinus) originating from a laboratory strain raised on a substrate consisting of a 50/50 (mass/mass) mixture of wheatgerm and of brewer's yeast as flakes calibrated by sieving (fragments of less than 1 mm in size) were used. The temperature was between 23 and 25° C. and the relative humidity was maintained at 75% by placing in the presence of a saturated aqueous ammonium sulphate solution ([NH4)2SO4]); the strain was conserved in the dark.
Pieces of standard cotton wool (150 g/m^2) were pre-infested with approximately 200 acarids of all stages.
The pieces of cotton wool were then treated by sprinkling with an aqueous solution obtained by mixing 10, 30 or 50 g/l of sodium bicarbonate into water.
Two rates of application of the solution were used: 30 and 50 ml/m^2.
The sodium bicarbonate solution was sprayed and projected evenly and precisely over the cotton wool surfaces.
The mortality of the acarids was noted after 15 min, 1 h, 2 h, 4 h and 24 h.
A control batch of acarids was monitored in parallel so as to determine the natural mortality of the acarids subjected to spraying with the same volume of water.
Each experimental series was repeated three times and the means of the mortality results obtained were taken.

O=C([O-])O.[Na+] [Sodium bicarbonate, sodium bicarbonate]
Survivors ([1]; immersion bath 10 g/l, after 3 weeks): 212.8 | Survivors ([1]; immersion bath 10 g/l, after 6 weeks): 818.3 | Survivors ([1]; immersion bath 30 g/l, after 3 weeks): 153.5 | Survivors ([1]; immersion bath 30 g/l, after 6 weeks): 245.0 | Survivors ([1]; immersion bath 50 g/l, after 3 weeks): 53.5 | Survivors ([1]; immersion bath 50 g/l, after 6 weeks): 143.0 | % mortality ([2]; 10 g bicarb/1, 30 ml/m^2 (0.3 g bicarb/m^2), contact time 15 minutes): 0.0% | % mortality ([2]; 10 g bicarb/1, 30 ml/m^2 (0.3 g bicarb/m^2), contact time 1 hour): 0.0% | % mortality ([2]; 10 g bicarb/1, 30 ml/m^2 (0.3 g bicarb/m^2), contact time 2 hours): 0.2% | % mortality ([2]; 10 g bicarb/1, 30 ml/m^2 (0.3 g bicarb/m^2), contact time 4 hours): 0.5% | % mortality ([2]; 10 g bicarb/1, 30 ml/m^2 (0.3 g bicarb/m^2), contact time 24 hours): 18.5% | % mortality ([2]; 10 g bicarb/1, 50 ml/m^2 (0.5 g bicarb/m^2), contact time 15 minutes): 0.0% | % mortality ([2]; 10 g bicarb/1, 50 ml/m^2 (0.5 g bicarb/m^2), contact time 1 hour): 0.0% | % mortality ([2]; 10 g bicarb/1, 50 ml/m^2 (0.5 g bicarb/m^2), contact time 2 hours): 2.1% | % mortality ([2]; 10 g bicarb/1, 50 ml/m^2 (0.5 g bicarb/m^2), contact time 4 hours): 20.9% | % mortality ([2]; 10 g bicarb/1, 50 ml/m^2 (0.5 g bicarb/m^2), contact time 24 hours): 35.8% | % mortality ([2]; 30 g bicarb/1, 30 ml/m^2 (0.9 g bicarb/m^2), contact time 15 minutes): 0.0% | % mortality ([2]; 30 g bicarb/1, 30 ml/m^2 (0.9 g bicarb/m^2), contact time 1 hour): 0.0% | % mortality ([2]; 30 g bicarb/1, 30 ml/m^2 (0.9 g bicarb/m^2), contact time 2 hours): 0.0% | % mortality ([2]; 30 g bicarb/1, 30 ml/m^2 (0.9 g bicarb/m^2), contact time 4 hours): 0.7% | % mortality ([2]; 30 g bicarb/1, 30 ml/m^2 (0.9 g bicarb/m^2), contact time 24 hours): 19.7% | % mortality ([2]; 30 g bicarb/1, 50 ml/m^2 (1.5 g bicarb/m^2), contact time 15 minutes): 0.0% | % mortality ([2]; 30 g bicarb/1, 50 ml/m^2 (1.5 g bicarb/m^2), contact time 1 hour): 0.0% | % mortality ([2]; 30 g bicarb/1, 50 ml/m^2 (1.5 g bicarb/m^2), contact time 2 hours): 3.4% | % mortality ([2]; 30 g bicarb/1, 50 ml/m^2 (1.5 g bicarb/m^2), contact time 4 hours): 25.1% | % mortality ([2]; 30 g bicarb/1, 50 ml/m^2 (1.5 g bicarb/m^2), contact time 24 hours): 39.9% | % mortality ([2]; 50 g bicarb/1, 30 ml/m^2 (1.5 g bicarb/m^2), contact time 15 minutes): 0.0% | % mortality ([2]; 50 g bicarb/1, 30 ml/m^2 (1.5 g bicarb/m^2), contact time 1 hour): 0.0% | % mortality ([2]; 50 g bicarb/1, 30 ml/m^2 (1.5 g bicarb/m^2), contact time 2 hours): 0.0% | % mortality ([2]; 50 g bicarb/1, 30 ml/m^2 (1.5 g bicarb/m^2), contact time 4 hours): 5.2% | % mortality ([2]; 50 g bicarb/1, 30 ml/m^2 (1.5 g bicarb/m^2), contact time 24 hours): 88.0% | % mortality ([2]; 50 g bicarb/1, 50 ml/m^2 (2.5 g bicarb/m^2), contact time 15 minutes): 0.0% | % mortality ([2]; 50 g bicarb/1, 50 ml/m^2 (2.5 g bicarb/m^2), contact time 1 hour): 0.0% | % mortality ([2]; 50 g bicarb/1, 50 ml/m^2 (2.5 g bicarb/m^2), contact time 2 hours): 2.8% | % mortality ([2]; 50 g bicarb/1, 50 ml/m^2 (2.5 g bicarb/m^2), contact time 4 hours): 58.9% | % mortality ([2]; 50 g bicarb/1, 50 ml/m^2 (2.5 g bicarb/m^2), contact time 24 hours): 95.7%
